Results reported in PubChem BioAssay AID330 (DTP/NCI, 2004).
Where “and” joins values, the source holds several entries; their conditions need not be identical. Equal values may be shown once. Inconclusive results and toxic doses are left out. Rule for the calls: active = survival T/C of 150% or more; inactive = T/C below 125% in these data.

Tested on: P388 leukemia ip, CD2F1 mice, survival T/C
Test: NCI In Vivo Anticancer Drug Screen. Data for tumor model P388 Leukemia (intraperitoneal) in CD2F1 (CDF1) mice
Settings: endpoint: median survival time, higher = longer survival
Method in brief: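 Mice carrying the transplanted tumor received test compound or vehicle. Survival was recorded in each group, and the value is the treated-group measurement divided by that of the vehicle-treated control group.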

[1] = dose: 60.0 mg/kg/injection, schedule: Q01DX005 (ip), vehicle: saline with Tween-80
[2] = dose: 120.0 mg/kg/injection, schedule: Q01DX005 (ip), vehicle: saline with Tween-80
[3] = dose: 240.0 mg/kg/injection, schedule: Q01DX005 (ip), vehicle: saline with Tween-80
[4] = dose: 25.0 mg/kg/injection, schedule: Q01DX009 (ip), vehicle: Klucel (hydroxypropylcellulose) (HPC)
[5] = dose: 50.0 mg/kg/injection, schedule: Q01DX009 (ip), vehicle: Klucel (hydroxypropylcellulose) (HPC)
[6] = dose: 50.0 mg/kg/injection, schedule: Q01DX009 (ip), vehicle: saline
[7] = dose: 100.0 mg/kg/injection, schedule: Q01DX009 (ip), vehicle: Klucel (hydroxypropylcellulose) (HPC)
[8] = dose: 100.0 mg/kg/injection, schedule: Q01DX009 (ip), vehicle: saline
[9] = dose: 200.0 mg/kg/injection, schedule: Q01DX009 (ip), vehicle: Klucel (hydroxypropylcellulose) (HPC)
[10] = dose: 50.0 mg/kg/injection, schedule: Q01DX005 (ip), vehicle: Klucel (hydroxypropylcellulose) (HPC)
[11] = dose: 100.0 mg/kg/injection, schedule: Q01DX005 (ip), vehicle: Klucel (hydroxypropylcellulose) (HPC)
[12] = dose: 50.0 mg/kg/injection, schedule: Q01DX005 (ip), vehicle: saline with Tween-80
[13] = dose: 100.0 mg/kg/injection, schedule: Q01DX005 (ip), vehicle: saline with Tween-80
[14] = dose: 200.0 mg/kg/injection, schedule: Q01DX005 (ip), vehicle: saline with Tween-80

Measured: T/C

COC(=O)C(COS(=O)(=O)c1ccc(C)cc1)NC(=O)OCc1ccc(OC)cc1 (centres undefined)
inactive: dose: 12.5 mg/kg/injection, schedule: Q01DX009 (ip), vehicle: water 98 % of control | dose: 25.0 mg/kg/injection, schedule: Q01DX009 (ip), vehicle: water 95 % of control | dose: 50.0 mg/kg/injection, schedule: Q01DX009 (ip), vehicle: water 89 % of control | dose: 100.0 mg/kg/injection, schedule: Q01DX009 (ip), vehicle: water 91 % of control | dose: 200.0 mg/kg/injection, schedule: Q01DX009 (ip), vehicle: water 91 % of control

S=c1nc2ccccn2c(=S)n1-c1ccccn1
inactive: dose: 50.0 mg/kg/injection, schedule: Q04DX003 (ip), vehicle: saline with Tween-80 95 % of control | dose: 100.0 mg/kg/injection, schedule: Q04DX003 (ip), vehicle: saline with Tween-80 115 % of control

O=C(/C=C/c1c[nH]c2ccccc12)c1ccccc1O
inactive: [1] 98 % of control | [2] 90 % of control | [3] 98 % of control

CC1(C)C(O)C(C)(C)C1O (centres undefined)
inactive: dose: 12.5 mg/kg/injection, schedule: Q01DX009 (ip), vehicle: saline with Tween-80 100 % of control | dose: 25.0 mg/kg/injection, schedule: Q01DX009 (ip), vehicle: saline with Tween-80 100 % of control | dose: 50.0 mg/kg/injection, schedule: Q01DX009 (ip), vehicle: saline with Tween-80 100 % of control

CNC(=O)Nc1ccc[nH]c1=O
inactive: [4] 103 % of control and 95 % of control | dose: 25.0 mg/kg/injection, schedule: Q01DX009 (ip), vehicle: saline 101 % of control | [5] 90 % of control and 91 % of control | [6] 99 % of control and 97 % of control | [7] 105 % of control and 96 % of control | [8] 100 % of control and 108 % of control | [9] 101 % of control and 87 % of control | dose: 200.0 mg/kg/injection, schedule: Q01DX009 (ip), vehicle: saline 99 % of control | dose: 400.0 mg/kg/injection, schedule: Q01DX009 (ip), vehicle: Klucel (hydroxypropylcellulose) (HPC) 109 % of control and 96 % of control | dose: 400.0 mg/kg/injection, schedule: Q01DX009 (ip), vehicle: saline 102 % of control and 109 % of control

Nc1nnc(CCC(=O)Nc2ccccc2Cl)o1
inactive: [1] 98 % of control | [2] 101 % of control | [3] 97 % of control

CC(=O)/C=C/c1ccccc1
inactive: [4] 103 % of control | [5] 101 % of control | [7] 101 % of control | dose: 100.0 mg/kg/injection, schedule: Q01DX009 (ip), vehicle: saline with Tween-80 108 % of control | [9] 103 % of control | dose: 200.0 mg/kg/injection, schedule: Q01DX009 (ip), vehicle: saline with Tween-80 109 % of control | dose: 400.0 mg/kg/injection, schedule: Q01DX009 (ip), vehicle: saline with Tween-80 119 % of control | dose: 600.0 mg/kg/injection, schedule: Q01DX009 (ip), vehicle: saline with Tween-80 117 % of control

COc1cc(Br)cc(C=O)c1OC
inactive: dose: 12.5 mg/kg/injection, schedule: Q01DX009 (ip), vehicle: other 98 % of control | dose: 25.0 mg/kg/injection, schedule: Q01DX009 (ip), vehicle: other 98 % of control | dose: 50.0 mg/kg/injection, schedule: Q01DX009 (ip), vehicle: other 99 % of control | dose: 100.0 mg/kg/injection, schedule: Q01DX009 (ip), vehicle: other 98 % of control | dose: 200.0 mg/kg/injection, schedule: Q01DX009 (ip), vehicle: other 102 % of control | dose: 400.0 mg/kg/injection, schedule: Q01DX009 (ip), vehicle: other 114 % of control

O=c1c(-c2ccccc2)nc2ccccc2n1CC1CCCN2CCCC[C@H]12 (some centres undefined)
inactive: [1] 99 % of control | [2] 97 % of control | [3] 102 % of control

O=[N+]([O-])c1cc(C(F)(F)F)cc([N+](=O)[O-])c1Nc1ccccc1
inactive: dose: 30.0 mg/kg/injection, schedule: Q01DX005 (ip), vehicle: Klucel (hydroxypropylcellulose) (HPC) 102 % of control | dose: 60.0 mg/kg/injection, schedule: Q01DX005 (ip), vehicle: Klucel (hydroxypropylcellulose) (HPC) 107 % of control | dose: 120.0 mg/kg/injection, schedule: Q01DX005 (ip), vehicle: Klucel (hydroxypropylcellulose) (HPC) 104 % of control | dose: 240.0 mg/kg/injection, schedule: Q01DX005 (ip), vehicle: Klucel (hydroxypropylcellulose) (HPC) 103 % of control

CC1(C)NC2Cc3c([nH]c4ccccc34)C3(C)CCC1CC23 (centres undefined)
inactive: dose: 12.5 mg/kg/injection, schedule: Q01DX005 (ip), vehicle: Klucel (hydroxypropylcellulose) (HPC) 94 % of control | dose: 25.0 mg/kg/injection, schedule: Q01DX005 (ip), vehicle: Klucel (hydroxypropylcellulose) (HPC) 94 % of control | [10] 89 % of control | [11] 108 % of control

CCCCCCN1CCN(Cc2ccc(N(CC)CC)cc2)C(=O)C1=O
inactive: [10] 91 % of control | [11] 100 % of control | dose: 200.0 mg/kg/injection, schedule: Q01DX005 (ip), vehicle: Klucel (hydroxypropylcellulose) (HPC) 105 % of control

C=C(COC(C)=O)CC(CC(=C)CC(OC(C)=O)Sc1ccccc1)S(=O)(=O)c1ccccc1 (centres undefined)
inactive: dose: 60.0 mg/kg/injection, schedule: Q01DX005 (ip), vehicle: saline + Tween-80 + alcohol 106 % of control | dose: 120.0 mg/kg/injection, schedule: Q01DX005 (ip), vehicle: saline + Tween-80 + alcohol 104 % of control | dose: 240.0 mg/kg/injection, schedule: Q01DX005 (ip), vehicle: saline + Tween-80 + alcohol 104 % of control

CN1C(=O)C2CCC1n1c(=O)n(-c3ccccc3)c(=O)n12 (centres undefined)
inactive: dose: 100.0 mg/kg/injection, schedule: Q01DX001 (ip), vehicle: Klucel (hydroxypropylcellulose) (HPC) 97 % of control | dose: 200.0 mg/kg/injection, schedule: Q01DX001 (ip), vehicle: Klucel (hydroxypropylcellulose) (HPC) 99 % of control | dose: 400.0 mg/kg/injection, schedule: Q01DX001 (ip), vehicle: Klucel (hydroxypropylcellulose) (HPC) 94 % of control

COc1cccc(C(=O)CCN(C)C)c1
inactive: [6] 98 % of control and 106 % of control | [8] 99 % of control and 105 % of control

CCN(CC)c1nc(Cl)nc(N(CC)CC)n1
inactive: dose: 25.0 mg/kg/injection, schedule: Q01DX005 (ip), vehicle: saline with Tween-80 99 % of control and 97 % of control | [12] 103 % of control [middle of 4 runs] | [13] 106 % of control and 101 % of control and 107 % of control | [14] 113 % of control [middle of 4 runs] | dose: 400.0 mg/kg/injection, schedule: Q01DX005 (ip), vehicle: saline with Tween-80 100 % of control

C=C1C(=O)C2=CC1CCC(=O)C1(C)CCC(OC(C)=O)C(C)(C)C1CC2O (centres undefined)
inactive: dose: 7.5 mg/kg/injection, schedule: Q01DX009 (ip), vehicle: Klucel (hydroxypropylcellulose) (HPC) 105 % of control and 107 % of control | dose: 15.0 mg/kg/injection, schedule: Q01DX009 (ip), vehicle: Klucel (hydroxypropylcellulose) (HPC) 110 % of control and 120 % of control and 123 % of control | dose: 30.0 mg/kg/injection, schedule: Q01DX009 (ip), vehicle: Klucel (hydroxypropylcellulose) (HPC) 102 % of control and 113 % of control and 114 % of control | dose: 60.0 mg/kg/injection, schedule: Q01DX009 (ip), vehicle: Klucel (hydroxypropylcellulose) (HPC) 111 % of control and 124 % of control

COc1cc(C2c3cc(O)c(OC)cc3CC(C(=O)O)C2CO)ccc1O (centres undefined)
inactive: [12] 100 % of control | [13] 97 % of control | [14] 98 % of control
